Test results reported in paper PMC3199867, “Targeting surface nucleolin with multivalent HB-19 and related Nucant pseudopeptides results in distinct inhibitory mechanisms depending on the malignant tumor cell type” (BMC Cancer, 2011).

How the values were obtained:
surface nucleolin = assay: HIV-1 LAI entry into HeLa-CD4-LTR-LacZ cells (β-galactosidase): function of surface nucleolin; type: cell-based, human; conditions: 0.05-0.8 μM, β-galactosidase at 48 h post-infection
Excerpt: Surface nucleolin serves as a low affinity receptor implicated in the binding and entry of HIV-1 particles into permissive cells. Consequently, HB-19 treatment of cells prevents HIV binding to cells and thus HIV entry and infection. Here HIV-1 LAI entry was monitored in HeLa-CD4-LTR-LacZ cells containing the bacterial lacZ gene under the control of HIV-1 LTR. Virus entry and replication result in trans-activation of HIV-1 LTR by the viral Tat protein, leading to the expression of β-galactosidase. At 48 h post-infection, cell monolayers are lysed in a phosphate buffer containing Nonidet P-40 (Sigma) (1%; v ⁄ v) and assayed for β-galactosidase activity by measuring optical density at 570 nm.
Figure 2 HB-19 and related Nucant pseudopeptides antagonize surface nucleolin and trigger its down regulation. A. Multivalent pseudopeptides block the biological function of surface nucleolin for HIV entry. […] At 48 h post-infection, the β-galactosidase activity was measured in cell extracts directly to monitor HIV entry (Methods). The abscissa gives % Activity of surface nucleolin calculated from the optical density measurements at 570 nm. […] Cytoplasmic (containing cytoplasmic as well as surface nucleolin) and nuclear extracts were analyzed by immunoblotting using mAb D3 as described (Methods)(panels Surface/cytoplasmic NCL, Nuclear NCL). […]

[1] = system: surface/cytoplasmic nucleolin; assay: Down regulation of surface/cytoplasmic nucleolin in MDA-MB 231 cells, immunoblotting; type: cell-based, human; conditions: MDA-MB 231, 10 μM, 16 hours, immunoblotting with mAb D3; nuclear nucleolin not affected
Protocol: Nucleolin was analyzed by immunoblotting using either the monoclonal antibody (mAb) D3 against nucleolin (kindly provided by Dr. J. S. Deng), or rabbit polyclonal antibodies directed against a synthetic peptide corresponding to the first 26 ([…]) and the last 16 ([…]) amino acid residues of human nucleolin as described before. […] The reacting bands were visualized with an enhanced chemiluminescence (ECL) reagent and by exposure to autoradiography film (Amersham Biosciences). In some experiments, the presence of actin was monitored as a control with mAb anti-actin A-4700 (Sigma). […]
Figure 2 HB-19 and related Nucant pseudopeptides antagonize surface nucleolin and trigger its down regulation. […] At 48 h post-infection, the β-galactosidase activity was measured in cell extracts directly to monitor HIV entry (Methods). The abscissa gives % Activity of surface nucleolin calculated from the optical density measurements at 570 nm. […] Cytoplasmic (containing cytoplasmic as well as surface nucleolin) and nuclear extracts were analyzed by immunoblotting using mAb D3 as described (Methods)(panels Surface/cytoplasmic NCL, Nuclear NCL). […] HeLa cells in the absence (histogram C) or presence of 1, 2, 5, and 10 μM of N6L were cultured for 7 hours before preparation of cell extracts and immunoblotting as in section B. The intensity of nucleolin protein bands was quantified by using the NIH image software. […]

Row | Substance | inhibitory activity on HIV-1 entry, fold more active compared to the pentavalent constructs N3 and HB-19 (surface nucleolin) | level of surface/cytoplasmic nucleolin [1]
1 | Ac-KAKPGKAKPGKAKPG-NH2 [Nucant N7, Presents hexavalently the pseudo-tripeptide Lysψ(CH2N)-Pro-Arg coupled to a similar template as in HB-19] | at least 2 fold | almost completely abolished
2 | Ac-Lys-Aib-Gly-Lys-Aib-Gly-Lys-Aib-Gly-Lys-Aib-Gly-Lys-Aib-Gly-Lys-Aib-Gly-CONH2 [Nucant N6, Presents hexavalently the pseudo-tripeptide Lysψ(CH2N)-Pro-Arg coupled to the polypeptide template containing Aib] | at least 2 fold | almost completely abolished
